Reference: patent US4406899A, “Cephalosporins” (Bristol-Myers Company, priority 1982, dated 1983)
In brackets after ≈: the same amount, converted by molar mass. Read-outs that look alike come from different tables or passages of the source.

Assays:
[1] = system: Cephalothinsensitive E. coli (2 strains), Kl. pneumoniae (1 strain) and Pr. mirabilis (2 strains); assay: MIC, two-fold serial agar dilution, group (G-)-Ia; type: cell-based; details: Mueller-Hinton agar; cephalothin-sensitive; read-out: Geometric Mean of MIC (G-)-Ia (5)
Description: The preferred compounds of Formula I are those in which R^1 is hydrogen and R^2 is methyl or ethyl. In the most preferred compound, R^2 is methyl. In the primary evaluation of the compounds of this invention, the Minimum Inhibitory Concentrations (MIC's) of the compounds and two reference compounds (cefotaxime and ceftazidime) were determined by the two-fold serial agar dilution method in Mueller-Hinton agar against 32 strains of test organisms in six groups.
(G-)Ia: Cephalothinsensitive E. coli (2 strains), Kl. pneumoniae (1
strain) and Pr. mirabilis (2 strains)

[2] = system: Ps. aeruginosa (6 strains); assay: MIC, two-fold serial agar dilution, group (G-)-III; type: cell-based; details: for MIC: Pseudomonas aeruginosa, read-out: Geometric Mean of MIC (G-)-III (6)
Description: (§1) In the primary evaluation of the compounds of this invention, the Minimum Inhibitory Concentrations (MIC's) of the compounds and two reference compounds (cefotaxime and ceftazidime) were determined by the two-fold serial agar dilution method in Mueller-Hinton agar against 32 strains of test organisms in six groups.

[3] = system: Cephalothinresistant E. coli (3 strains) and Kl. pneumoniae (3 strains); assay: MIC, two-fold serial agar dilution, group (G-)-Ib; type: cell-based; details: Escherichia coli, read-out: Geometric Mean of MIC (G-)-Ib (6)
Description: as §1

[4] = system: Pr. morganii (1 strain), Ent. cloacae (2 strains) and Ser. marcescens (2 strains); assay: MIC, two-fold serial agar dilution, group (G-)-II; type: cell-based; details: read-out: Geometric Mean of MIC (G-)-II (5)
Description: as §1

[5] = system: Penicillinresistant S. aureus (5 strains); assay: MIC, two-fold serial agar dilution, group (G+)-Ib; type: cell-based; details: Staphylococcus aureus, read-out: Geometric Mean of MIC (G+)-Ib (5)
Description: as §1
(G+)Ib: Penicillinresistant S. aureus (5 strains)

[6] = system: Penicillinsensitive S. aureus (5 strains); assay: MIC, two-fold serial agar dilution, group (G+)-Ia; type: cell-based; details: Staphylococcus aureus, read-out: Geometric Mean of MIC (G+)-Ia (5 strains)
Description: as §1

[7] = system: Morganella morganii; assay: MIC, resistant Enterobacteriaceae, Morganella morganii; type: cell-based; details: read-out: Geometric Mean MIC
[8] = system: Citrobacter species; assay: MIC, resistant Enterobacteriaceae, Citrobacter species; type: cell-based; details: read-out: Geometric Mean MIC
[9] = system: 240 strains of Enterobacteriaceae; details: resistant: MIC ≥8 μg/ml; 27 of 240 strains resistant to at least one compound
[10] = Blood levels after single intramuscular administration to mice; details: mouse, blood, im, 20 mg/kg
Description: Blood samples were collected from the orbital sinuses into heparinized capillary tubes and assayed in Mueller-Hinton medium using Morganella morganii A9695 as the test organism.

[11] = system: Proteus vulgaris; assay: MIC, resistant Enterobacteriaceae, Proteus vulgaris; type: cell-based; details: read-out: Geometric Mean MIC
[12] = system: Citrobacter freundii; assay: MIC, resistant Enterobacteriaceae, Citrobacter freundii; type: cell-based; details: read-out: Geometric Mean MIC
[13] = system: Escherichia coli; assay: MIC, resistant Enterobacteriaceae, Escherichia coli; type: cell-based
[14] = system: Enterobacter cloacae; assay: MIC, resistant Enterobacteriaceae, Enterobacter cloacae; type: cell-based
[15] = system: Klebsiella pneumoniae; assay: MIC, resistant Enterobacteriaceae, Klebsiella pneumoniae; type: cell-based; details: read-out: Geometric Mean MIC
[16] = system: Enterobacter aerogenes; assay: MIC, resistant Enterobacteriaceae, Enterobacter aerogenes; type: cell-based; details: Klebsiella aerogenes
[17] = system: Serratia marcescens; assay: MIC, resistant Enterobacteriaceae, Serratia marcescens; type: cell-based
[18] = Mueller-Hinton agar, Ps. aeruginosa
[19] = Mueller-Hinton agar, penicillin-sensitive S. aureus
[20] = Mueller-Hinton medium, 1 strain
[21] = read-out: Geometric Mean MIC, Mueller-Hinton medium, 1 strain (first E. cloacae line)
[22] = read-out: Geometric Mean MIC, Mueller-Hinton medium, 1 strain (fourth E. cloacae line)
[23] = read-out: Geometric Mean MIC, Mueller-Hinton medium, 3 strains (third E. cloacae line)
[24] = read-out: Geometric Mean MIC, Mueller-Hinton medium, 3 strains
[25] = read-out: Geometric Mean MIC, Mueller-Hinton medium, 1 strain (first S. marcescens line)
[26] = read-out: Geometric Mean MIC, Mueller-Hinton medium, 1 strain (fourth S. marcescens line)
[27] = read-out: Geometric Mean MIC, Mueller-Hinton medium, 1 strain (second S. marcescens line)
[28] = read-out: Geometric Mean MIC, Mueller-Hinton medium, 1 strain (sixth S. marcescens line)

Structure (SMILES) | MIC [1] [µg/mL] | MIC [2, 18] [µg/mL] | MIC [3] [µg/mL] | MIC ([4]; Mueller-Hinton agar) [µg/mL] | MIC [5] [µg/mL] | MIC [6, 19] [µg/mL] | Total Number of Resistant Strains [9] | AUC [10] [ng·h/mL] | concentration at 10 min [10] [ng/mL] | concentration at 20 min [10] [ng/mL] | concentration at 0.5 h [10] [ng/mL] | concentration at 0.75 h [10] [ng/mL] | concentration at 1 h [10] [ng/mL] | concentration at 1.5 h [10] [ng/mL] | half-life [10] [min] | MIC [14, 21] [µg/mL] | MIC [14, 22] [µg/mL] | MIC [14, 23] [µg/mL] | MIC [16, 24] [µg/mL] | MIC [17, 25] [µg/mL] | other results
CCO/N=C(\C(=O)NC1C(=O)N2C(C(=O)[O-])=C(C[N+]3(C)CCCC3)CSC12)c1csc(N)n1 (stereo not drawn) [Ib, 7-[(Z)-2-Ethoxyimino-2-(2-aminothiazol-4-yl)acetamido]-3-[(1-methyl-1-pyrrolidinium)methyl]-3-cephem-4-carboxylate] | 0.087 (≈ 0.176 µM) | 5.6 (≈ 11.3 µM) | 0.32 (≈ 0.647 µM) | 1 (≈ 2.02 µM) | 3.1 (≈ 6.27 µM) | 1.4 (≈ 2.83 µM) |  |  |  |  |  |  |  |  |  |  |  |  |  |  | 
C=CCO/N=C(\C(=O)NC1C(=O)N2C(C(=O)[O-])=C(C[N+]3(C)CCCC3)CSC12)c1csc(N)n1 (stereo not drawn) [Id, 7-[(Z)-2-Allyloxyimino-2-(2-aminothiazol-4-yl)acetamido]-3-[(1-methyl-1-pyrrolidinium)methyl]-3-cephem-4-carboxylate] | 0.53 (≈ 1.05 µM) | 13 (≈ 25.7 µM) | 1.1 (≈ 2.17 µM) | 2.4 (≈ 4.74 µM) | 3.6 (≈ 7.11 µM) | 1.8 (≈ 3.55 µM) |  |  |  |  |  |  |  |  |  |  |  |  |  |  | 
CC(C)O/N=C(\C(=O)NC1C(=O)N2C(C(=O)[O-])=C(C[N+]3(C)CCCC3)CSC12)c1csc(N)n1 (stereo not drawn) [Compound Ic, 7-[(Z)-2-(2-Propoxyimino)-2-(2-aminothiazol-4-yl)acetamido]-3-[(1-methyl-1-pyrrolidinium)methyl]-3-cephem-4-carboxylate] | 0.35 (≈ 0.688 µM) | 11 (≈ 21.6 µM) | 1.3 (≈ 2.56 µM) | 3.2 (≈ 6.29 µM) | 3.6 (≈ 7.08 µM) | 1.4 (≈ 2.75 µM) |  |  |  |  |  |  |  |  |  |  |  |  |  |  | 
CO/N=C(\C(=O)N[C@@H]1C(=O)N2C(C(=O)O)=C(COC(C)=O)CS[C@H]12)c1csc(N)n1 [Cefotaxime] | 0.015 (≈ 0.0329 µM) | 22 (≈ 48.3 µM) | 0.35 (≈ 0.768 µM) | 4.1 (≈ 9 µM) | 2.2 (≈ 4.83 µM) | 1 (≈ 2.2 µM) | 18 | 14900 | 27800 | 19300 | 13000 | 9100 | 4600 | 1200 | 15 | 8 (≈ 17.6 µM) | > 63 | > 63 | 13 (≈ 28.5 µM) | 16 (≈ 35.1 µM) | MIC [7, 20]: 32 µg/mL (≈ 70.3 µM); MIC [8, 20]: 32 µg/mL (≈ 70.3 µM); MIC [11, 20]: 8 µg/mL (≈ 17.6 µM); MIC ([12]; Mueller-Hinton medium, 2 strains): 32 µg/mL (≈ 70.3 µM); MIC ([13]; Mueller-Hinton medium, 1 strain (first E. coli line), read-out: Geometric Mean MIC): 8 µg/mL (≈ 17.6 µM); MIC ([13]; Mueller-Hinton medium, 1 strain (second E. coli line), read-out: Geometric Mean MIC): 8 µg/mL (≈ 17.6 µM); MIC ([14]; Mueller-Hinton medium, 3 strains (second E. cloacae line), read-out: Geometric Mean MIC): 50 µg/mL (≈ 110 µM); MIC [15, 20]: 0.13 µg/mL (≈ 0.285 µM); MIC ([16]; Mueller-Hinton medium, 1 strain, read-out: Geometric Mean MIC): 32 µg/mL (≈ 70.3 µM); MIC ([17]; Mueller-Hinton medium, 1 strain (fifth S. marcescens line), read-out: Geometric Mean MIC): 8 µg/mL (≈ 17.6 µM); MIC ([17]; Mueller-Hinton medium, 2 strains (third S. marcescens line), read-out: Geometric Mean MIC): 11 µg/mL (≈ 24.2 µM); MIC [17, 26]: 63 µg/mL (≈ 138 µM); MIC [17, 27]: 16 µg/mL (≈ 35.1 µM); MIC [17, 28]: > 63 µg/mL
CC(C)(O/N=C(\C(=O)N[C@@H]1C(=O)N2C(C(=O)[O-])=C(C[n+]3ccccc3)CS[C@H]12)c1csc(N)n1)C(=O)O [Ceftazidime] | 0.07 (≈ 0.128 µM) |  | 1.7 (≈ 3.11 µM) |  | 12 (≈ 22 µM) |  | 15 | 13800 | 21500 | 18400 | 14900 | 8700 | 4400 | ~800 | 17 | 4 (≈ 7.32 µM) | > 63 | > 63 | 32 (≈ 58.5 µM) | 1 (≈ 1.83 µM) | MIC [7]: 32 µg/mL (≈ 58.5 µM); MIC [8]: > 63 µg/mL; MIC [2]: 1.8 µg/mL (≈ 3.29 µM); susceptibility of (G-)-III group, ceftazidime compared with Compound Ia ([2]; comparison of geometric mean MICs): somewhat more susceptible to ceftazidime; MIC [11]: 8 µg/mL (≈ 14.6 µM); MIC [12]: 45 µg/mL (≈ 82.3 µM); MIC ([13]; read-out: Geometric Mean MIC): 32 µg/mL (≈ 58.5 µM); MIC ([13]; read-out: Geometric Mean MIC, Mueller-Hinton medium, 1 strain (second E. coli line)): 0.5 µg/mL (≈ 0.915 µM); MIC ([14]; read-out: Geometric Mean MIC, Mueller-Hinton medium, 3 strains (second E. cloacae line)): 40 µg/mL (≈ 73.2 µM); MIC [4]: 2.6 µg/mL (≈ 4.76 µM); MIC [15]: 16 µg/mL (≈ 29.3 µM); MIC [6]: 5.1 µg/mL (≈ 9.33 µM); MIC ([16]; read-out: Geometric Mean MIC, Mueller-Hinton medium, 1 strain): 8 µg/mL (≈ 14.6 µM); MIC ([17]; read-out: Geometric Mean MIC, Mueller-Hinton medium, 1 strain (fifth S. marcescens line)): 16 µg/mL (≈ 29.3 µM); MIC [17, 26]: 8 µg/mL (≈ 14.6 µM); MIC [17, 27]: 8 µg/mL (≈ 14.6 µM); MIC [17, 28]: > 63 µg/mL; MIC ([17]; read-out: Geometric Mean MIC, Mueller-Hinton medium, 2 strains (third S. marcescens line)): 2 µg/mL (≈ 3.66 µM)
